Test results: patent US20230074252A1, “DOSAGES AND METHODS FOR TREATING PULMONARY ARTERIAL HYPERTENSION WITH RODATRISTAT” (Altavant Sciences GmbH, priority 2020, published 2023)
Entries after “also recorded” stand apart in the source; their conditions may differ. Where two headings read alike, the source gives them in different places.

Key:
CYP isoforms = assay: Time-dependent CYP inhibition (overall statement); assay type: in vitro ADME, human
CYP2D6 = CYP2D6 (Homo sapiens, UniProt P10635); assay: In vitro CYP substrate assessment (victim potential); assay type: in vitro ADME
Sequence of CYP2D6 (P10635 whole entry): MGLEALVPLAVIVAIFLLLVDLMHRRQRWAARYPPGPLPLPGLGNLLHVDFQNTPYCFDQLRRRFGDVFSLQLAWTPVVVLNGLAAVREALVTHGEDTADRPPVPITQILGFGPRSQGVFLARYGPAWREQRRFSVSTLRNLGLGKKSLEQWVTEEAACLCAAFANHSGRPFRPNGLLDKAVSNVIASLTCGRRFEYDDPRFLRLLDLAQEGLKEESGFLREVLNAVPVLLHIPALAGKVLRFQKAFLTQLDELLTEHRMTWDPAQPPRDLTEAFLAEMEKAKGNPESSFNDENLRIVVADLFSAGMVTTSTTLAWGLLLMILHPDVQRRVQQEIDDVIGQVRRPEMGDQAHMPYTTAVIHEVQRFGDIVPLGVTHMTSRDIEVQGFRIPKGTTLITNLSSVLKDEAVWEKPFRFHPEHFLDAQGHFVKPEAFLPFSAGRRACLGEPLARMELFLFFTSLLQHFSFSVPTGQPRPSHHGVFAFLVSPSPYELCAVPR

OAT1 = target: T1, OAT1 (Homo sapiens, UniProt Q4U2R8); assay: Transporter inhibition, transporter-expressing in vitro system; assay type: in vitro ADME; details: for Potential for interaction? (transporter inhibitor), OAT1: predicted @ 600 mg BID
T1 sequence (Q4U2R8 1-563): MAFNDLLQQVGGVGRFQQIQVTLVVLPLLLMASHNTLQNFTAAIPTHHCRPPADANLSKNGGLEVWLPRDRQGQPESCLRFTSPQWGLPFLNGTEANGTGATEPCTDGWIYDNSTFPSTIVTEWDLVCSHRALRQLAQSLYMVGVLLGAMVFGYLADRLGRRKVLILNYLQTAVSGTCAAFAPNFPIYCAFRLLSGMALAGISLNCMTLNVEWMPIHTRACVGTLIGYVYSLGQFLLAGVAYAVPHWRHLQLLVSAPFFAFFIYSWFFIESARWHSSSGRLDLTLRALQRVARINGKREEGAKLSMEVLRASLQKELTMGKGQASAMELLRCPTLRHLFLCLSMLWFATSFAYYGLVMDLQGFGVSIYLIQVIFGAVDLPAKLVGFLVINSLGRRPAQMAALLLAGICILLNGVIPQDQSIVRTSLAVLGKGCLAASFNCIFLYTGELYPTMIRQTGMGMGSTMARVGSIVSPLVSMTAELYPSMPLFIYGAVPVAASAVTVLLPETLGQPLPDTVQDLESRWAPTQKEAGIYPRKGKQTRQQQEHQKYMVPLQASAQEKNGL
Experimental: The competitive inhibition of specific transporters was investigated for RVT-1201 and KAR5417 in transporter-expressing in vitro systems (XT158039). Inhibition of P-gp was evaluated using a Caco-2 cell line with digoxin as probe substrate. Inhibition of OATP1B1 and OATP1B3 was evaluated using a HEK293 cell line expressing these transporters with estradiol-17β-glucuronide as probe substrate. In addition, inhibition of other transporters was also investigated (BCRP, OAT1, OAT3, OCT2, MATE1, MATE2-K). The IC50 estimates for P-gp (RVT-1201) and OATP1B1/3 (RVT-1201 and KAR5417) supported further evaluation of inhibition DDI potential using the PBPK model. For each IC50 estimate, substrate concentration and Km were used to estimate RVT-1201 and KAR5417 Ki with Equation 1 (Cheng and Prusoff, 1973).

MRP2 [1] = target: T2, MRP2 (Homo sapiens, UniProt Q92887); assay: Transporter inhibition, in vitro; assay type: in vitro ADME; details: for Potential for interaction? (transporter inhibitor), MRP2: predicted @ 600 mg BID
T2 sequence (Q92887 whole entry): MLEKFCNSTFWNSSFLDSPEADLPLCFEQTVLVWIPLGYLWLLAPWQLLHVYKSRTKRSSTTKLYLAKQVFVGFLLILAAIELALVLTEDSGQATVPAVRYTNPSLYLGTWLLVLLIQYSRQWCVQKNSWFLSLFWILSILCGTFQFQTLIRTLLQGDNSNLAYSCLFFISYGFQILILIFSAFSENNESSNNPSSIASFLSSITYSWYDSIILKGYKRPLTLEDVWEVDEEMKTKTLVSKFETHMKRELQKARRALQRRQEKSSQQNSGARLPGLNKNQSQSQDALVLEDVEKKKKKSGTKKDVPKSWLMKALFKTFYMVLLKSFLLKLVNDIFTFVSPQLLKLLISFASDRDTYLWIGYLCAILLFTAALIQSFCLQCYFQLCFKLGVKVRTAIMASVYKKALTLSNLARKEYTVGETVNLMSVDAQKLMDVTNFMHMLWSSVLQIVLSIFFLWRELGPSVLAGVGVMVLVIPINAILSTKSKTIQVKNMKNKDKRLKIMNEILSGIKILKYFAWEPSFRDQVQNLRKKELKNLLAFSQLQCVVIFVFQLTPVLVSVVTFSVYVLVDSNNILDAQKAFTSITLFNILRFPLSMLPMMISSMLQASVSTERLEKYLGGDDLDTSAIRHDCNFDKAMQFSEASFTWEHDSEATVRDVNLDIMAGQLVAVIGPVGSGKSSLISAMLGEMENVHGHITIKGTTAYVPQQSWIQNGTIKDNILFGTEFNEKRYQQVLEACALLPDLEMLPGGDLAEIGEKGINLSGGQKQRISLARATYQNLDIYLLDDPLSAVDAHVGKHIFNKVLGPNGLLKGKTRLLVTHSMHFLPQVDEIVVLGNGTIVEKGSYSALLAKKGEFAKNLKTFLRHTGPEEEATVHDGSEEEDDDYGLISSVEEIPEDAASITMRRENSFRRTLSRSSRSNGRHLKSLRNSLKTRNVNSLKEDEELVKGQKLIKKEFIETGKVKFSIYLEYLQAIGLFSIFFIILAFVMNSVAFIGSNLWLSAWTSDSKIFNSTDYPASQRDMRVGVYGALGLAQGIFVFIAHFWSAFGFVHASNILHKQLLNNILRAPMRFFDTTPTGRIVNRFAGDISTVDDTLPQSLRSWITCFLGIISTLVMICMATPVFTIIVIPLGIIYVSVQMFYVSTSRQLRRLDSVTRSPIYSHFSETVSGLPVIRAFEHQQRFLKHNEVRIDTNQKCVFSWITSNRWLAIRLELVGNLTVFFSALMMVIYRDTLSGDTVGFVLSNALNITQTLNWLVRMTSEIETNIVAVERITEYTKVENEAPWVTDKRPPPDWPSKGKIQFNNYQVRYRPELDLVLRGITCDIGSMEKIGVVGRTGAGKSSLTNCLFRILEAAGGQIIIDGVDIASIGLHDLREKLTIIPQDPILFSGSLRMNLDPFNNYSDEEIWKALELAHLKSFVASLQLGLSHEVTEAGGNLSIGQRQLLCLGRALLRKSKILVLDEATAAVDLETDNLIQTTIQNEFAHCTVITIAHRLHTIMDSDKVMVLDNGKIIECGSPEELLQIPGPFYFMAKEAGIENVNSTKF

BCRP = target: T3, BCRP (Homo sapiens, UniProt Q9UNQ0); assay: In vitro transporter substrate assessment; assay type: in vitro ADME
T3 sequence (Q9UNQ0 1-655): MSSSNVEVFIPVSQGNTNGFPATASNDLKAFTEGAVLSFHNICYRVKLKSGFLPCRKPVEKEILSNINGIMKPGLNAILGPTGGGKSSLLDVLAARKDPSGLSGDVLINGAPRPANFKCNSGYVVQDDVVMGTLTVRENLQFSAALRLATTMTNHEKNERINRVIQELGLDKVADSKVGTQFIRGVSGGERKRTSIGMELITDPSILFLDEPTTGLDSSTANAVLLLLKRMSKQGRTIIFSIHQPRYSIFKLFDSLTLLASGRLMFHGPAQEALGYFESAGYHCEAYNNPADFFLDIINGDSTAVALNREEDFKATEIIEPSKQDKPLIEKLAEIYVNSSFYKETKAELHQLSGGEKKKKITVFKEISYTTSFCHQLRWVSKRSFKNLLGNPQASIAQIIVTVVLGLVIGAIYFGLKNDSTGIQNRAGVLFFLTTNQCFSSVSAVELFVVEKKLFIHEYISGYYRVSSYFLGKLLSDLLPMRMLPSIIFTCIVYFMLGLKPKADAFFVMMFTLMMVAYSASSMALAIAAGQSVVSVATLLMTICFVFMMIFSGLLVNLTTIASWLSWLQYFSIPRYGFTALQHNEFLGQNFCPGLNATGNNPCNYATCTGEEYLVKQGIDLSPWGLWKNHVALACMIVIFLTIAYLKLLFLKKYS
Description: (§1) Consequently, the elimination of rodatristat into bile may be impacted by co-administration with agents that are BCRP inhibitors.

MRP2 [2] = target: T2, MRP2; assay: In vitro transporter substrate assessment; assay type: in vitro ADME
Description: as §1

OATP1B3 = target: T4, OATP1B3 (Homo sapiens, UniProt Q9NPD5); assay: In vitro transporter substrate assessment; assay type: in vitro ADME
T4 construct: expressed in transfected cells; host or cells: HEK293
T4 sequence (Q9NPD5 1-702): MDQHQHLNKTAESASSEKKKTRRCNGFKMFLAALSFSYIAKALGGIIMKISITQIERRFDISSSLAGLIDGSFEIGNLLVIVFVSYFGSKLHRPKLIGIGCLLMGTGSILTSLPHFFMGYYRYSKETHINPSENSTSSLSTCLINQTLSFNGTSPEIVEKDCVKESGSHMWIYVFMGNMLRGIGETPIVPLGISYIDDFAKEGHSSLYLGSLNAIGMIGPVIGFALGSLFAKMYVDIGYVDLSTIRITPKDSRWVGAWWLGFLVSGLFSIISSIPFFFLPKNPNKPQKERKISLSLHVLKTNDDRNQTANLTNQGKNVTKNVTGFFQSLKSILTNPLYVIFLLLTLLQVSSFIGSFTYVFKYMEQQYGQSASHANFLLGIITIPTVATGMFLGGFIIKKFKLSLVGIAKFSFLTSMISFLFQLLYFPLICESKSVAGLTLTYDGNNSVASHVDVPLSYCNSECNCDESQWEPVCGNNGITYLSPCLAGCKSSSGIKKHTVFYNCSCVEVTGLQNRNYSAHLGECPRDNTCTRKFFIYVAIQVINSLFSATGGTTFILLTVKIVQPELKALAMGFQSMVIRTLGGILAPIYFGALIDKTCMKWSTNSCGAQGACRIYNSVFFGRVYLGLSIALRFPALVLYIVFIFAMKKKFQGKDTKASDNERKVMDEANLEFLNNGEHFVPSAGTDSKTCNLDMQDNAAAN
Description: as §1

P-gp = target: T5, P-gp (Homo sapiens, UniProt P08183); assay: In vitro transporter substrate assessment; assay type: in vitro ADME
T5 construct: endogenous in cells; host or cells: Caco-2
T5 sequence (P08183 whole entry): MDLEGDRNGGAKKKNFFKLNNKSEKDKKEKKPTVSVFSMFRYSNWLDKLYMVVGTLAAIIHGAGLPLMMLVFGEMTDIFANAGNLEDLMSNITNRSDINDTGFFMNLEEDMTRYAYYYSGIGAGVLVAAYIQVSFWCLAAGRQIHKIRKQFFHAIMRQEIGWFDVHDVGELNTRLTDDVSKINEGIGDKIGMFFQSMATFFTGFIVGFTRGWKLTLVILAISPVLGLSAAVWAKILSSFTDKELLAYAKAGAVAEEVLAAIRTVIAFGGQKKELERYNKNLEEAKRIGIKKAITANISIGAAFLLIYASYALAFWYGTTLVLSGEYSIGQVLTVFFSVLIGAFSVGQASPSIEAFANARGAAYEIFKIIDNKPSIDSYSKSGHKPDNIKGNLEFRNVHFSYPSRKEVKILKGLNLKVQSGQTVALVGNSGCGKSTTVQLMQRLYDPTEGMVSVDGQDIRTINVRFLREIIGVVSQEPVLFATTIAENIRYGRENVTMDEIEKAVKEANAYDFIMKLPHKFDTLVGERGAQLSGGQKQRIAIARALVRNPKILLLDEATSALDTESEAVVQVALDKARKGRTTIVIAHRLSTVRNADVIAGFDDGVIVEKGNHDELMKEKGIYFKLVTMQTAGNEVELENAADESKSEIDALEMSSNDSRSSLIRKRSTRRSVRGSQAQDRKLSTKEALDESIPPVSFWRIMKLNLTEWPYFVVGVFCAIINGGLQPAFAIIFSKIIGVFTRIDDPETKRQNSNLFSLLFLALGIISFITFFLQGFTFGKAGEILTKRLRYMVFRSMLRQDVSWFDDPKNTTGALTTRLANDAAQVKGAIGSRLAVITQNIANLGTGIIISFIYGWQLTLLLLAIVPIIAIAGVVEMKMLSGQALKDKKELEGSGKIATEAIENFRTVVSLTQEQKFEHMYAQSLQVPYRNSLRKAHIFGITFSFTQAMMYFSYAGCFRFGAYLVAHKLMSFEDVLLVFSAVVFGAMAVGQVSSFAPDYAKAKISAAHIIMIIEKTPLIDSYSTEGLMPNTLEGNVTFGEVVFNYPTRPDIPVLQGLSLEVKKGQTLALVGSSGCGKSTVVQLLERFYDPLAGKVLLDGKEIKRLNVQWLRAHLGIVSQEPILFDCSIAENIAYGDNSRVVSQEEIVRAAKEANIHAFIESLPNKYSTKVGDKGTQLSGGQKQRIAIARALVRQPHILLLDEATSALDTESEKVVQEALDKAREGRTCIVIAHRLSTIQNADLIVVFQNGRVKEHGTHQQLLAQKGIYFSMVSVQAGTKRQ
Description: as §1

Compound | Time-dependent inhibition of CYP isoforms (CYP isoforms) | In vitro substrate? CYP2D6 (CYP2D6) | Inhibition of OAT1 (in words) (OAT1) | Potential for interaction? (transporter inhibitor), OAT1 (OAT1) | Potential for interaction? (transporter inhibitor), MRP2 (MRP2 [1]) | In vitro substrate? BCRP (BCRP) | In vitro substrate? MRP2 (MRP2 [2]) | In vitro substrate? OATP1B3 (OATP1B3) | In vitro substrate? P-gp (P-gp) | Time-dependent inhibition of CYP isoforms (CYP isoforms; listed as rodatristat) | inhibition at 30 µM (MRP2 [1]; nominal 30 μM) | Accumulation by OATP1B3 uptake transporter (OATP1B3; 3 μM)
CCOC(=O)[C@@H]1CC2(CCN(c3cc(O[C@H](c4ccc(Cl)cc4-c4ccccc4)C(F)(F)F)nc(N)n3)CC2)CN1 [Rodatristat ethyl, (S)-ethyl 8-(2-amino-6-((R)-1-(5-chloro-[1,1′-biphenyl]-2-yl)-2,2,2-trifluoroethoxy)pyrimidin-4-yl)-2,8-diazaspiro[4.5]decane-3-carboxylate] | not time-dependent CYP inhibitors | No | Neither rodatristat ethyl nor rodatristat inhibited | No | No | not a substrate; also recorded: not likely | not a substrate; also recorded: not likely | not a substrate and No | not a substrate; also recorded: not likely |  |  | 
Nc1nc(O[C@H](c2ccc(Cl)cc2-c2ccccc2)C(F)(F)F)cc(N2CCC3(CC2)CN[C@H](C(=O)O)C3)n1 [Rodatristat, (S)-8-(2-amino-6-((R)-1-(5-chloro-[1,1′-biphenyl]-2-yl)-2,2,2-trifluoroeth-oxy)pyrimidin-4-yl)-2,8-diazaspiro[4.5]decane-3-carboxylic acid] |  | No | Neither rodatristat ethyl nor rodatristat inhibited | No | No^a | potential substrate | not an in vitro substrate; also recorded: Not likely | is an in vitro substrate and Yes | potential substrate | not time-dependent CYP inhibitors | 25% | 9.28 fold
